For data set [1] the following is noted: DTA.
A short description of data set [2]: Molar enthalpy of transition or fusion. Particulars: DSC.

Molecules are shown by their SMILES. ± gives the expanded uncertainty stated by the source.

Turning to `CCCCCCCCCCCCCCCCO` [1-hexadecanol], the results for the Triple point temperature in data set [1] (Crystal 1) and in data set [1] (Crystal 2) were 323.17 ± 0.41 K and 322.27 ± 0.49 K, respectively. In data set [2] (Crystal 2), the “Molar enthalpy of transition or fusion” value was found to be 13.5 ± 0.765 kcal/mol.
The matching figures for `CCCCCCCCCCCCCCCCCCO` [1-octadecanol]: 331.82 ± 0.49 K, 330.97 ± 0.39 K and 15.6 ± 0.908 kcal/mol.
For `CCCCCCCCCCCCCCO` [1-tetradecanol], in that order: 311.39 ± 0.39 K, 310.45 ± 0.41 K and 11.4 ± 0.526 kcal/mol.
As for `CCCCCCCCCCCC(=O)O` [dodecanoic acid], the figures for the Triple point temperature in data set [1] (Crystal 1) and in data set [1] (Crystal 2) were 318.29 ± 0.41 K and 317.9 ± 0.6 K, respectively. Moreover, the “Molar enthalpy of transition or fusion” value in data set [2] (Crystal 2) came to 8.51 ± 0.335 kcal/mol.
Take `CCCCCCCCCCCCCCCC(=O)O` [hexadecanoic acid]: the Triple point temperature in data set [1] (Crystal) was found to be 336.34 ± 0.63 K. The “Molar enthalpy of transition or fusion” value in data set [2] (Crystal) was 12.7 ± 0.574 kcal/mol.
Take `CCCCCCCCCCCCCC(=O)O` [tetradecanoic acid]: the values for the Triple point temperature in data set [1] (Crystal 1) and in data set [1] (Crystal 2) were 328.13 ± 0.48 K and 327.65 ± 0.48 K, respectively. In addition, the “Molar enthalpy of transition or fusion” value in data set [2] (Crystal 2) worked out at 10.5 ± 0.43 kcal/mol.

Source of the values: the NIST ThermoML archive (doi:10.1016/j.fluid.2014.01.004).
